The results in this text go back to patent US20060229358A1, “Pharmaceutical composition containing flavonoids” (Taipei Medical University, priority 2005, published 2006).

Where two headings read alike, the source gives them in different places.

In one assay the target is T1, PDE2 (Cavia porcellus, UniProt A0A286XUV5).
T1 sequence (A0A286XUV5 22-936): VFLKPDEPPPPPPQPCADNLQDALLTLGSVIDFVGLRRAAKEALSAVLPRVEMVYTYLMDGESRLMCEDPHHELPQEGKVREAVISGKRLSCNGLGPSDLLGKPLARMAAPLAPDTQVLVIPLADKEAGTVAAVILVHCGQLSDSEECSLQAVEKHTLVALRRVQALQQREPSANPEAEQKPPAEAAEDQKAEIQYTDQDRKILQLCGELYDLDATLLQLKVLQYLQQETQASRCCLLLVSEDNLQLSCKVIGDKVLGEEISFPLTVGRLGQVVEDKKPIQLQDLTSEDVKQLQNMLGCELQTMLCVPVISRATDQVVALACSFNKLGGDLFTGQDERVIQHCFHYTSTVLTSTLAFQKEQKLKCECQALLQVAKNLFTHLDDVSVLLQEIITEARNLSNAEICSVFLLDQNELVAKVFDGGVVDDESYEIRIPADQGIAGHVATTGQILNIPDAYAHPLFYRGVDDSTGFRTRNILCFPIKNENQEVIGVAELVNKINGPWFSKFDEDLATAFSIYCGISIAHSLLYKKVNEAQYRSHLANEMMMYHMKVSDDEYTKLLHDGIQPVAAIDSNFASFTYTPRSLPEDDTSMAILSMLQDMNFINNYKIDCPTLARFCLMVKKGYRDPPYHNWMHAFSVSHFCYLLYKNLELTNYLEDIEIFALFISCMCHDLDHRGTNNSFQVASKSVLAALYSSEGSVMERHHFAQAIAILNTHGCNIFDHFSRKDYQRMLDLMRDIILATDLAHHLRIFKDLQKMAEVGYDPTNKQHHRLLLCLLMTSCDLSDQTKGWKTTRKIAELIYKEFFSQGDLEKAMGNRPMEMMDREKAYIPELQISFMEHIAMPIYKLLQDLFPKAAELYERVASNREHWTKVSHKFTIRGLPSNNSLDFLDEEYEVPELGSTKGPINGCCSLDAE
Description: Inhibition of cyclic nucleotide PDE activity (Assay I), PDE2. It is filed as biochemical, guinea pig. The procedure: (§1) Under a protocol approved by the Animal Care and Use Committee of Taipei Medical University, five male guinea pigs (Hartley), weighing 500-600 g, were sacrificed. The lungs (15 g) or hearts (4 g) taken therefrom were chopped into small pieces and homogenized with a glass/teflon homogenizer (Glas-Col, Terre Haute, Ind., USA) in 10 volumes of cold medium (pH 6.5) containing 20 mM Bis-Tris, 2 mM benzamidine, 2 mM EDTA, 50 mM sodium chloride, 0.1 mM phenylmethanesulfonyl fluoride (PMSF), and 1 mM dithiothreitol. At 4° C., the homogenate was centrifuged at 170 g for 15 min, and the supernatant thereof was then re-centrifuged at 40,000 g for 30 min. […] The column was washed with two bed volumes of homogenate buffer to remove unbound material, where the resin beads therein will bind with proteins, such as PDE proteins. Proteins bound to the Q-sepharose beads were eluted with various concentrations (0.23, 0.34, 0.44, 0.69, and 1.00 M) of NaCl dissolved in homogenate buffer (for each concentration, 40-50 mL elution buffer were applied) at a flow rate of 30 ml/h. Fractions (3 ml each) were collected, and ethylene glycol (EG) was added thereto until a final concentration of 30% (v/v). And then the samples were frozen at −70° C.
(§2) The activities of PDE1-5 in the homogenate were measured with a two-step procedure according to the method of Thompson and Appleman, using cAMP with [^3H]-cAMP or cGMP with [^3 H]-cGMP as substrates. The PDE enzyme prepared (25 μl) with 10 μl inhibitor or the solvents therefor was incubated for 30 min at 37° C. in a total assay buffer, where the final volume of the assay is amounted to 100 μl. In accordance with the features of the PDE isozymes, the assay buffer contains 50 mM Tris/HCl (pH 7.4), 3 mM MgCl2, 1 mM dithiothreitol, and 0.05% BSA, and optionally contains 1 uM cAMP with 0.2 μCi [^3H]-cAMP as a substrate alone or in the presence of 0.1 unit calmodulin with 10 μM CaCl2, or 5 μM cGMP, and 1 μM cGMP with 0.2 μCi [^3H]-cGMP as another substrate alone or in the presence of 0.1 unit calmodulin with 10 μM CaCl2.
(§3) The PDE enzyme and the inhibitors (or their solvent) therefor were mixed and incubated on ice for 30 min previously, and then mixed with the assay buffer. The assay was initiated by transferring the mixture to a water bath at 37° C. Following the other 30 min incubation, the reaction was stopped by transferring the reaction vessel to a bath of boiling water for 3 min. After cooling on ice, 20 μl of the 1 mg/ml of Crotalus atrox venom was added to the reaction mixture, and the mixture was incubated at 37° C. for 10 min. The uncatalyzed substrates, such as cAMP, [^3H]-cAMP, cGMP, or [^3H]-cGMP were removed by the addition of 500 μl of a 1-in-1 Tris-HCl (40 mM) buffer suspension of Dowex resin (1×8-200) with incubation on ice for 30 min, since the bindings of the cyclic nucleotides and the resin. Each tube was then centrifuged for 2 min at 6000 rpm, and 100 μl of the supernatant was removed and counted by a β-counter for calculating the enzyme (PDEs) activity.
The IC50 values of flavonoids and various reference drugs were calculated using non-linear regression analysis by the software SigmaPlot 7.0 (Sigma Chemical, St. Louis Mo., USA). All values are shown as the mean±S.E.M. Differences among values, which are equal or greater to three groups, were statistically calculated by one-way analysis of variance (ANOVA), and then determined by the least significant difference (LSD). The difference between two values, however, was determined by use of Student's unpaired t-test. Differences were considered statistically significant if the P-value was less than 0.05.

The test system of the next assay is T2, PDE4.
T2 construct: IC50 on phosphodiesterase isozyme 4; other: mean ± S.E.M. (n)
In words: Inhibition of cyclic nucleotide PDE activity (Assay I), PDE4, incl. Lineweaver-Burk analysis. As to conditions: for IC50: mean ± S.E.M. (n), read-out: IC50 on phosphodiesterase isozyme 4. The format is biochemical, guinea pig. How it is done:
as §1, §2, §3
The dissociation constant of inhibitor binding (Ki) value was determined from the equation of apparent Km as a function of the inhibitor concentration (insert in A and B, respectively). The slope of the equation is equal to the value of […] (where KM is Michaelis constant). The amounts of the total proteins are calculated based on the analytical method reported by Bradford. In FIGS. 1A and 1B, all enzyme activities are shown as nmole of substrate per mg of proteins per minute (nmole/mg/min) hydrolyzed.
The IC50 values of flavonoids and various reference drugs were calculated using non-linear regression analysis by the software SigmaPlot 7.0 (Sigma Chemical, St. Louis Mo., USA).

Setting [1] is: mean ± S.E.M. (n), read-out: IC50 on phosphodiesterase isozyme 2.

`O=c1cc(-c2ccc(O)c(O)c2)oc2cc(O)cc(O)c12` [Luteolin]: the values for the half-maximal inhibitory concentration (IC50) on PDE2 (setting [1]) and in the assay with PDE4 were 13.3 ± 0.8 µM and 19.1 ± 2.4 µM, respectively. Regarding `O=c1c(-c2ccc(O)cc2)coc2cc(O)cc(O)c12` [Genistein], the IC50 (commonly the midpoint of a concentration-inhibition curve) at PDE2 (setting [1]) was found to be 1.7 ± 0.2 µM. For the molecule `O=c1cc(-c2ccc(O)c(O)c2)oc2cc(O[C@@H]3O[C@H](CO)[C@@H](O)[C@H](O)[C@H]3O)cc(O)c12` [Luteolin-7-glucoside], the IC50 turned out to be 35.1 ± 0.2 µM at PDE2 (setting [1]) and 43 ± 5.3 µM with PDE4. Consider `O=c1cc(-c2ccccc2)oc2cc(O)cc(O)c12` [Chrysin], for which the IC50 at PDE2 (setting [1]) and in the assay with PDE4 was over 100 µM each time. With `O=c1cc(-c2ccc(O)cc2)oc2cc(O)cc(O)c12` [Apigenin], the IC50 on PDE2 (setting [1]) is 16.7 ± 6.3 µM; in the assay with PDE4 it was over 100 µM. The matching figures for `O=C1CC(c2ccc(O)c(O)c2)Oc2cc(O)cc(O)c21` (stereo not shown) [Eriodictyol]: over 100 µM and over 100 µM. Take `O=c1c(O)c(-c2cc(O)c(O)c(O)c2)oc2cc(O)cc(O)c12` [Myricetin]: the IC50 at PDE2 (setting [1]) came out at 12.8 ± 0.6 µM. As to `O=c1c(O)c(-c2ccc(O)c(O)c2)oc2cc(O)cc(O)c12` [Quercetin], the half-maximal inhibitory concentration (IC50) at PDE2 (setting [1]) is 17.9 ± 3.4 µM. With `COc1ccc(-c2coc3cc(O)cc(O)c3c2=O)cc1` [Biochanin A], the IC50 at PDE2 (setting [1]) was found to be 27.9 ± 4.1 µM.

`COc1cc(O)c2c(=O)c(-c3ccc(O)cc3)coc2c1` [Prunetin] came in with an IC50 at PDE2 of over 100 µM. Turning to `O=c1c(-c2ccc(O)cc2)coc2cc(O)ccc12` [Daidzein], the IC50 at PDE2 (setting [1]) and in the assay with PDE4 was over 100 µM in each case. With `COc1ccc(C2CC(=O)c3c(O)cc(O)cc3O2)cc1O` (stereo not shown) [Hesperetin], the IC50 on PDE2 (setting [1]) is over 100 µM. Besides, the “mode of inhibition of PDE4 enzyme activity” value with PDE4 (Lineweaver-Burk plot, cAMP substrate, FIG. 1A) is listed as “competitively inhibits”.
